Measurements as given in patent US20200023067A1, “DUAL-ACTION ELAFIBRANOR METFORMIN SALT FOR TREATING OBESITY ASSOCIATED WITH NON-ALCOHOLIC STEATOHEPATITIS (NASH) AND […]” (NASHPHARM, priority 2016, published 2020).
≈ marks a conversion by molar mass, not a printed value. Where “and” joins values, the source holds several entries; their conditions need not be identical. Equal entries are not always repeated. Where two headings read alike, the source gives them in different places.

What was measured:
Format in all cases: physicochemical
[1] = Stability after exposure to light and temperature, by UPLC MS; settings: powder form or solution; daylight, ambient temperature; compared with the salt
Description: The products were exposed to daylight and to ambient temperature.
The reference samples for their part are stored cool (2°-8° C.), protected from light by aluminum paper and under inert gas for the solid product.

[2] = Thermodynamic solubility of elafibranor in aqueous buffers and cosolvents; settings: for solubility at 72 h / solubility at 24 h / solubility: 23 °C, thermodynamic from solid; for solubility at 72 h / solubility at 24 h: ambient temperature (22°-24° C.); for solubility at 72 h: read-out: Solubility after 72 hours; for solubility at 24 h: read-out: Solubility after 24 hours
Description: The thermodynamic solubility of the basic elafibranor is studied over a period of 24 hours and 72 hours in various aqueous buffers in the presence or not of surfactants. Batch number EM0274L2 is used for this work. After 24 hours and 72 hours of incubation at ambient temperature (22°-24° C.), the solutions are sampled and then filtered over 0.2 μm polycarbonate filters in flasks for LCMS analyses, and diluting once in DMSO before stirring for 2 minutes (vortex or sonification).

[3] = Solubility test on the elafibranor (GFT505) metformin salt; settings: aqueous buffer, thermodynamic from solid
Description: The solubility kinetics is determined in an aqueous medium (water and pharmacopoeia buffers), at ambient temperature.

[4] = Thermodynamic solubility of elafibranor in aqueous buffers and cosolvents; settings: for solubility at 24 h: read-out: Solubility after 24 hours
[5] = Solubility test on the elafibranor (GFT505) metformin salt; settings: organic solvent or mixture, thermodynamic from solid, ambient temperature
[6] = aqueous buffer, aqueous buffer, Buffer pH 4.6
[7] = aqueous buffer, aqueous buffer, Buffer pH 7.4
[8] = aqueous buffer, aqueous buffer, Buffer pH 8.5

Sensitivity to light (photosensitivity) [1]: more sensitive to light
solubility at 72 h ([2]; organic solvent or mixture, Propylene glycol): 35100 µM and 13500 µg/mL
solubility at 24 h [2, 6]: 114 µM and 44 µg/mL
solubility at 72 h [2, 6]: 110 µM and 42 µg/mL
solubility at 24 h [2, 7]: 504 µM and 194 µg/mL
solubility at 72 h [2, 7]: 609 µM and 234 µg/mL
solubility at 24 h [2, 8]: 4420 µM and 1700 µg/mL
solubility at 72 h [2, 8]: 4270 µM and 1640 µg/mL
solubility ([2]; aqueous buffer, pH 4.6, aqueous buffer): 114 µM (≈ 43.8 µg/mL)
solubility ([2]; aqueous buffer, pH 8.5, aqueous buffer): 4420 µM (≈ 1700 µg/mL)
Solubility in an aqueous medium ([2]; aqueous medium): low
solubility ([3]; Buffer pH 4.6, ambient temperature): 114 µM and 44 µg/mL
solubility ([3]; Buffer pH 7.4, ambient temperature): 504 µM and 194 µg/mL
solubility ([3]; Buffer pH 8.5, ambient temperature): 4420 µM and 1700 µg/mL
solubility at 24 h ([4]; 23 °C, organic solvent or mixture, thermodynamic from solid, Polyethylene glycol 400, ambient temperature (22°-24° C.)): 39000 µM and 15000 µg/mL
solubility at 72 h ([4]; 23 °C, organic solvent or mixture, thermodynamic from solid, Polyethylene glycol 400, ambient temperature (22°-24° C.), read-out: Solubility after 72 hours): 41000 µM and 15800 µg/mL
solubility at 24 h ([4]; 23 °C, organic solvent or mixture, thermodynamic from solid, Propylene glycol, ambient temperature (22°-24° C.)): 33500 µM and 12900 µg/mL
Effect of cosolvent on solubility ([4]; addition of cosolvent such as propylene glycol or PEG 400): significantly improves the solubility
solubility ([5]; Polyethylene glycol 400): 39000 µM and 15000 µg/mL
solubility ([5]; Propylene glycol): 33500 µM and 12900 µg/mL
SMILES: CSc1ccc(C(=O)/C=C/c2cc(C)c(OC(C)(C)C(=O)O)c(C)c2)cc1 [elafibranor, 2-[2,6 dimethyl-4-[3-[4-(methylthio)phenyl]-3-oxo-1(E)-propenyl]phenoxyl]-2-methylpropanoic acid]
